Earlier results, collected in patent US20030171260A1, “Compositions and methods utilizing hydroxamates to scavenge oxidant toxins” (priority 2002, published 2003).
Counter-ions that a name gives are not always drawn.

Experiments:
[1] = tested on: rat

time to leave the vascular space after administration [min] | SMILES | oral LD50 dose ([1]; in vivo, po) | intraperitoneal LD50 dose ([1]; intraperitoneal) [mg/kg] | subcutaneous LD50 dose ([1]; subcutaneous)
– | CCCCOc1ccc(CC(=O)NO)cc1 [bufexamac] | 3,370 mg/kg | 805 | > 5,000 mg/kg
≤ 60 | CC(=O)N(O)CCCCCNC(=O)CCC(=O)N(O)CCCCCNC(=O)CCC(=O)N(O)CCCCCN [desferoxamine mesylate] | – | – | –
